The target in one experiment is T1, TYRO3 (Homo sapiens, UniProt Q06418).
T1 sequence (Q06418 41-890): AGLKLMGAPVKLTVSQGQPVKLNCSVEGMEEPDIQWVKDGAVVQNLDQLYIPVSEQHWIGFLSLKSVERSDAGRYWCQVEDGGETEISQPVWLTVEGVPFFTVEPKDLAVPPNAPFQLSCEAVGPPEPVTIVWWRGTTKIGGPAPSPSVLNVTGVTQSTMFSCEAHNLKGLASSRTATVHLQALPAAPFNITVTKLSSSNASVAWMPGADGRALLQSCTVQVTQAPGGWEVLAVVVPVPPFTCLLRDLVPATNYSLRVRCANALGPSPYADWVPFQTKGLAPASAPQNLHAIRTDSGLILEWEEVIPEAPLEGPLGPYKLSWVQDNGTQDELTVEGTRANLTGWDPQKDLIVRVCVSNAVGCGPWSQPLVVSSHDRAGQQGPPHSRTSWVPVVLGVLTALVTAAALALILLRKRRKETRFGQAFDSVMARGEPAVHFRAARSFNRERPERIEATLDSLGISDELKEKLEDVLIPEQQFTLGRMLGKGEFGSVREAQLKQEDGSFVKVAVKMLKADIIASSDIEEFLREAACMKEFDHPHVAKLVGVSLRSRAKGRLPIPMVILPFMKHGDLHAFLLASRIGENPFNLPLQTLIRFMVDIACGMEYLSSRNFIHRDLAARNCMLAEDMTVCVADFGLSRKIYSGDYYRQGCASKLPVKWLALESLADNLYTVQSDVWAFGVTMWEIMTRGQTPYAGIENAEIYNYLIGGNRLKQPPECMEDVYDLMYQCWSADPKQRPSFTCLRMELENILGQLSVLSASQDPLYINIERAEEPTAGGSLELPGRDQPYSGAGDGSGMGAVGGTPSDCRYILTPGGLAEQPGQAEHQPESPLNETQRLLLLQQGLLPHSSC
The experiment in a line: TR-FRET kinase activity assay, TYRO3. In kind it is biochemical. The following applies: ATP at Km, 60 minutes. The essentials:
(§1)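 Enzyme, fluorescent-labeled peptide substrate and compound were mixed, then ATP was added at each enzyme's Km. Buffer was 50 mM HEPES pH 7.5, 10 mM MgCl2, 1 mM EGTA, 0.01% Brij 35, 1 mM DTT at RT. After 60 min, EDTA quench and 30 min with Eu-anti-phosphotyrosine-site antibody; TR-FRET read gave IC50.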

The next experiment has as its target T2, AXL (Homo sapiens, UniProt P30530).
T2 sequence (P30530 26-894): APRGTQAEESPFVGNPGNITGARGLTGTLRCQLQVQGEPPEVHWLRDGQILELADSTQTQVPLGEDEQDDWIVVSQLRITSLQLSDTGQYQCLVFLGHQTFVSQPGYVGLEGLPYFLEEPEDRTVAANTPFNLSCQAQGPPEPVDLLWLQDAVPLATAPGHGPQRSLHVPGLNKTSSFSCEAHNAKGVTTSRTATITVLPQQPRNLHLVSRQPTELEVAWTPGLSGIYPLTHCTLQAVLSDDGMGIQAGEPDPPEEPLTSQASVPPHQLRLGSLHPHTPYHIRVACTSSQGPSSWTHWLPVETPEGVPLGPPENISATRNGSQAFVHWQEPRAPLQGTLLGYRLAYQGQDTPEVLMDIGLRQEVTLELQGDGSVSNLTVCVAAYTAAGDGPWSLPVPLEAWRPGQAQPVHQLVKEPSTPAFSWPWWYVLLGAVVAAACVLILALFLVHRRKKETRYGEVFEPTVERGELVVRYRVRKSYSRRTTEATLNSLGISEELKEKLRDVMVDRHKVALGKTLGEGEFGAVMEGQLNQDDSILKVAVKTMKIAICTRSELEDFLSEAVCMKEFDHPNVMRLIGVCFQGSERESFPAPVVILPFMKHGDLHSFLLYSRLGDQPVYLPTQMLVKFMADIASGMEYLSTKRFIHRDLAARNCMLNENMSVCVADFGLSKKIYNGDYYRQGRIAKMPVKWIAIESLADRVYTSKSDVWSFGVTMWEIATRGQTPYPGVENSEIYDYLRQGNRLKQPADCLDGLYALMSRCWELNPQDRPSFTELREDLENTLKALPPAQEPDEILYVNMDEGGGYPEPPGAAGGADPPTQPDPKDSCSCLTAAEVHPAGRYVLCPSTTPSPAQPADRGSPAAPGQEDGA
The experiment in a line: TR-FRET kinase activity assay, AXL. The following applies: ATP at Km, 60 minutes. Type of experiment: biochemical. The essentials: as §1

For `COC[C@@H](C)Nc1ncc2c(OC3CC(O)C3)ncc([C@H]3CC[C@H](O)CC3)c2n1` (some centres unmarked) [Compound 351], the IC50 against TYRO3 is no more than 100 nM; against AXL, 1000 to 10000 nM.
For `C[C@@H](CC(F)(F)F)Nc1ncc2c(OC3CCN(C)CC3)ncc([C@H]3CC[C@H](O)CC3)c2n1` [Compound 352], in that order: no more than 100 nM and 100 to 1000 nM.
In the same order, the values of `O=C(O)[C@H]1CC[C@@H](Nc2ncc3c(OC4CCOCC4)ncc([C@H]4CC[C@H](O)CC4)c3n2)CC1` [Compound 353] are 1000 to 10000 nM and 1000 to 10000 nM.
In the same order, the values of `COC[C@H](C)Nc1ncc2c(O[C@@H]3CCOC3)ncc([C@H]3CC[C@H](O)CC3)c2n1` [Compound 354] are 100 to 1000 nM and 1000 to 10000 nM.

The record behind these values is patent publication US20200291018A1, “TAM KINASE INHIBITORS” (SYROS PHARMACEUTICALS, INC., priority 2017, published 2020).
